These results are taken from patent publication US11161845B2, “Pyrrolopyridine-aniline compounds for treatment of dermal disorders” (Nflection Therapeutics, Inc., priority 2017, dated 2021).

As usually defined, the GI50 is the concentration that inhibits growth by half.

A short description of data set [1]: S9 stability assay, human liver S9 fraction. The class given is in vitro ADME. The method, boiled down:
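Incubation at 37 °C of 1 μM compound with 2 mg/mL human liver S9 protein and 1 mM NADPH in 100 mM potassium phosphate pH 7.4 (1 mM EDTA, 3 mM MgCl2), sampled at 0, 15, 30, 60 min. Parent loss by LC/MS/MS gave t1/2 and CLint = 0.693/t1/2 × mL incubation/mg S9 protein.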

A short description of data set [2]: Compound levels in neck/back skin (LCMS), in vivo mouse model. The settings on record: for concentration at 1 h / concentration at 2 h: male, C57BL/6J, mouse, neck/back skin; for concentration at 1 h: 1 h after final application; for concentration at 2 h: 2 h after final application; for Compound Levels in Neck/Back Skin: pre-dose (16 h). Also noted: species or system mice. The protocol: Week 4 (Experiment end): Skin and blood were collected right before the last morning dose (N=3), 1 hour (N=3 mice), and 2 hours (N=3 mice) after final application; Blood draw: Plasma compound levels (LCMS); Skin biopsy: formalin fixed for histology and p-ERK staining, flash frozen for Western analysis and skin compound levels (LCMS)
Skin biopsy and GI tract sampling: Skin was wiped down with 100% ethanol and a 1 cm^2 biopsy was obtained from compound application site each mouse at the 25 day end of experiment (except as noted below). The skin was biopsied prior to final dose from 3 mice, 1 hour after last compound application from 3 mice, 2 hours after last compound application from 3 mice. Half of the specimen were immediately flash frozen for LCMS analysis and Western Blot Analysis. Half of the specimen was fixed for 24 hours in 10% formalin and then transferred to ethanol for immunohistochemistry. Gastrointestinal tract was also formalin fixed overnight then transferred to 70% ETOH for storage.
Compound level analysis: Liquid chromatography with mass spectrometry method (LCMS) was used to detect compound levels in the skin and plasma. Tissues were preprocessed prior to LCMS as follows. Tissues were minced and incubated with collagenase and then finally homogenized using the stainless steel beads prior to LCMS analysis. Calibration curves and a QC test were run with each assay.

The subject of a further data set is A375 cells. The data set can be described thus: A375 (BRAF) GI50 cell-based assay (Cell Titer-Glo). The settings on record: Homo sapiens, A-375; 72 hours; read-out: Assay 2: A375 (BRAF) GI50. The protocol:
Alternatively, the following procedure can be used to measure cell-based activity. Test compounds were dissolved in DMSO in 10 mM stock. Cell Titer-Glo® 2.0 Luminescent cell viability assay reagent was purchased from Promega (Madison, Wis.). A375 and HCT116 cell lines were purchased from American Type Culture Collection (Manassas, Va.). For A375 cells, cell culture media was DMEM+10% FBS. For HCT116 cells, cell culture media was McCoy's 5A+10% FBS. All media were supplemented with 100 μg/mL of penicillin, and 100 μg/mL of streptomycin. Cultures were maintained at 37° C. in a humidified atmosphere of 5% CO2 and 95% air.
Test compounds were diluted in DMSO solution with 10-dose and 3-fold dilutions in a source plate starting at 10 mM. 25 nL of each test compound was delivered from the source plate to each well of the 384-well cell culture plates (T=Final) by Echo 550. 25 μL of culture medium containing 2000 of A375 or HCT116 cells was added to each of the wells in duplicates of the cell culture plates (T=0 and T=Final). 25 μL of Cell Titer Glo 2.0 reagent was added to each well of cell culture plate (T=0). The contents were mixed on an orbital shaker for 2 min and incubated at room temperature for 15 min to stabilize luminescent signal. Luminescence was recorded by Envision 2104 Multilabel Reader (PerkinElmer, Santa Clara, Calif.). The number of viable cells in culture was determined based on quantitation of the ATP present in each culture well. The cells in cell culture plate (T=Final) were incubated with the compounds at 37° C., 5% CO2 for 72 hours. 25 μL of Cell Titer Glo 2.0 reagent was added to each well. The contents were mixed on an orbital shaker for 2 min and incubated at room temperature for 15 min to stabilize luminescent signal. Luminescence was recorded by Envision 2104 Multilabel Reader (PerkinElmer, Santa Clara, Calif.). The number of viable cells in culture was determined based on quantitation of the ATP present in each culture well. The G150 curves were plotted using the GraphPad Prism 4 program based on a sigmoidal dose-response equation Y=Bottom+(Top−Bottom)/(1+10^((Log EC50−X)*HillSlope)). All parameters in the equation were calculated by GraphPad Prism 4 program. […] Accordingly, GI50 is the value of 10^X, where X was calculated by the Curve Fitting Equation when Y=50 using Excel.
For orientation: In ATP-based viability assays light output follows the ATP content of the culture.

In the case of `Cn1c(Nc2ccc(I)cc2F)c(C(=O)NOCCO)c2cccnc21` [Example 2, 2-((2-Fluoro-4-iodophenyl)amino)—N-(2-hydroxyethoxy)-1-methyl-1H-pyrrolo[2,3-b]pyridine-3-carboxamide], the “Assay 5: human liver S9 instrinsic clearance value” in data set [1] (Table 2, 1 μM, 2 mg/mL S9 protein, NADPH) amounted to 21.45 μL/min/mg protein. Besides, the microsomal CLint at 1 μM in data set [1] (pH 7.4, Table 1, human liver S9 fraction, read-out: CLint) stood at 21.4 µL/min/mg. Besides, the half-life at 1 μM in data set [1] (pH 7.4, Table 1, human liver S9 fraction, read-out: Liver S9 t1/2) is 16 min. For the same compound, in data set [2] (topical 0.1%), the concentration at 1 h was 14 µg/mL, the concentration at 2 h came out at 4.88 µg/mL and the “Compound Levels in Neck/Back Skin” value was 5.62 µg/mL. In addition, in data set [2] (topical 0.5%), the concentration at 1 h stood at 289 µg/mL, the concentration at 2 h was found to be 81.6 µg/mL and the “Compound Levels in Neck/Back Skin” value came to 49.17 µg/mL. Besides, in data set [2] (topical 1%), the concentration at 1 h is 683 µg/mL, the concentration at 2 h was determined as 378 µg/mL and the “Compound Levels in Neck/Back Skin” value stood at 14.73 µg/mL. Further, in the data set on A375 cells, the GI50 was 63 nM.
